Measurements taken from ChEMBL document CHEMBL1697781, “Assessment of the health effects of chemicals in humans: II. Construction of an adverse effects database for QSAR modeling” (Curr Drug Discov Technol, 2004).

Tests used:
Settings in all cases: human; call rule not given here
Hepatotoxicity [1] = assay: FDA HLAED, serum glutamic oxaloacetic transaminase (SGOT) increase
Hepatotoxicity [2] = assay: FDA HLAED, serum glutamic pyruvic transaminase (SGPT) increase
Hepatotoxicity [3] = assay: FDA HLAED, gamma-glutamyl transferase (GGT) increase
Hepatotoxicity [4] = assay: FDA HLAED, lactate dehydrogenase (LDH) increase
Hepatotoxicity [5] = assay: FDA HLAED, liver enzyme composite activity
Hepatotoxicity [6] = assay: FDA HLAED, alkaline phosphatase increase
For GGT Increase - Index Value in this document: reference of the scale not given here.
For LDH Increase - Index Value in this document: reference of the scale not given here.

| SMILES | SGOT Increase - Activity Score (Hepatotoxicity [1]) | SGOT Increase - Index Value (Hepatotoxicity [1]) | SGOT Increase - Number of Reports (Hepatotoxicity [1]) | SGPT Increase - Activity Score (Hepatotoxicity [2]) | SGPT Increase - Index Value (Hepatotoxicity [2]) | SGPT Increase - Number of Reports (Hepatotoxicity [2]) | GGT Increase - Activity Score (Hepatotoxicity [3]) | GGT Increase - Index Value (Hepatotoxicity [3]) | GGT Increase - Number of Reports (Hepatotoxicity [3]) | LDH Increase - Activity Score (Hepatotoxicity [4]) | LDH Increase - Index Value (Hepatotoxicity [4]) | LDH Increase - Number of Reports (Hepatotoxicity [4]) | Alkaline Phosphatase Increase - Activity Score (Hepatotoxicity [6]) | Alkaline Phosphatase Increase - Index Value (Hepatotoxicity [6]) | Alkaline Phosphatase Increase - Number of Reports (Hepatotoxicity [6]) | Composite Activity - Active (Hepatotoxicity [5]) | Composite Activity - Marginal (Hepatotoxicity [5]) | Composite Activity - Score (Hepatotoxicity [5]) | other results |
| --- | --- | --- | --- | --- | --- | --- | --- | --- | --- | --- | --- | --- | --- | --- | --- | --- | --- | --- | --- |
| CC(C)NCC(O)COc1ccc(CCOCC2CC2)cc1 (stereo unspecified) [BETAXOLOL] | Inactive | 0 | < 4 | Inactive | 0 | < 4 | Inactive | 0 | < 4 | Inactive | 0 | < 4 | Inactive | 0 | < 4 | – | – | – | Composite Activity - Active (Hepatotoxicity [5]; Liver): 0; Composite Activity - Marginal (Hepatotoxicity [5]; Liver): 0; Composite Activity - Score (Hepatotoxicity [5]; Liver): Inactive |
| C[C@H](O)C(=O)Nc1c(I)c(C(=O)NC(CO)CO)c(I)c(C(=O)NC(CO)CO)c1I [IOPAMIDOL] | Inactive | 526.3 | < 4 | Inactive | 0 | < 4 | Inactive | 0 | < 4 | Active | 1579 | < 4 | Inactive | 0 | < 4 | 1 | 0 | Inactive | – |
| CC(C)NCC(O)COc1ccc(CC(N)=O)cc1 (stereo unspecified) [ATENOLOL] | Inactive | 0.5 | >= 4 | Inactive | 0.3 | >= 4 | Inactive | 0 | < 4 | Inactive | 0.1 | < 4 | Inactive | 0.1 | < 4 | – | – | – | Composite Activity - Active (Hepatotoxicity [5]; Liver): 0; Composite Activity - Marginal (Hepatotoxicity [5]; Liver): 0; Composite Activity - Score (Hepatotoxicity [5]; Liver): Inactive |
| NCCC(O)(P(=O)(O)O)P(=O)(O)O [PAMIDRONIC ACID] | Inactive | 4.1 | < 4 | Inactive | 4.1 | < 4 | Active | 12.4 | < 4 | Inactive | 4.1 | < 4 | Active | 16.6 | >= 4 | 2 | 0 | Active | – |
| CN1C2CCCC1CC(NC(=O)c1nn(C)c3ccccc13)C2 (stereo unspecified) [GRANISETRON] | Inactive | 0.6 | < 4 | Inactive | 0.6 | < 4 | Inactive | 0.2 | < 4 | Inactive | 0.2 | < 4 | Inactive | 1 | >= 4 | 0 | 0 | Inactive | – |
| CCCCCCC(=O)O[C@H]1CC[C@H]2[C@@H]3CCc4cc(O)ccc4[C@H]3CC[C@]12C [ESTRADIOL ENANTHATE] | Inactive | 2.8 | >= 4 | Inactive | 2.1 | >= 4 | Inactive | 0.3 | < 4 | Inactive | 1.2 | >= 4 | Inactive | 1.5 | >= 4 | 0 | 0 | Inactive | – |
| NCCCC[C@H](N[C@@H](CCc1ccccc1)C(=O)O)C(=O)N1CCC[C@H]1C(=O)O [LISINOPRIL ANHYDROUS] | Inactive | 1.5 | >= 4 | Inactive | 1.4 | >= 4 | Inactive | 1 | >= 4 | Inactive | 1.2 | >= 4 | Inactive | 2 | >= 4 | 0 | 0 | Inactive | – |
| CC(CCc1ccccc1)NCC(O)c1ccc(O)c(C(N)=O)c1 (stereo unspecified) [LABETALOL] | Marginally Active | 3 | >= 4 | Inactive | 1.1 | >= 4 | Inactive | 0 | < 4 | Inactive | 0.4 | < 4 | Inactive | 0.9 | >= 4 | 0 | 1 | Inactive | – |
| Cc1cccc(Nc2ccncc2S(=O)(=O)NC(=O)NC(C)C)c1 [TORSEMIDE] | Inactive | 0.5 | < 4 | Inactive | 0.5 | < 4 | Inactive | 0 | < 4 | Inactive | 0 | < 4 | Inactive | 0 | < 4 | 0 | 0 | Inactive | – |
| C=C1/C(=C\C=C2/CCC[C@]3(C)[C@@H]([C@H](C)/C=C/[C@@H](O)C4CC4)CC[C@@H]23)C[C@@H](O)C[C@@H]1O [CALCIPOTRIENE] | Inactive | 0.3 | < 4 | Inactive | 0 | < 4 | Inactive | 0 | < 4 | Inactive | 0 | < 4 | Inactive | 0 | < 4 | 0 | 0 | Inactive | – |
| OC[C@H]1O[C@@H](n2cnc3c2NC=NC[C@H]3O)C[C@@H]1O [PENTOSTATIN] | Inactive | 0 | < 4 | Inactive | 0 | < 4 | Inactive | 0 | < 4 | Inactive | 0 | < 4 | Inactive | 0 | < 4 | 0 | 0 | Inactive | – |
| COC(=O)C1=C(C)NC(C)=C(C(=O)OCCN(C)Cc2ccccc2)C1c1cccc([N+](=O)[O-])c1 (stereo unspecified) [NICARDIPINE] | Marginally Active | 3 | >= 4 | Inactive | 2.5 | >= 4 | Inactive | 0.4 | < 4 | Inactive | 0.9 | >= 4 | Inactive | 2 | >= 4 | 0 | 1 | Inactive | – |
